Laboratory results taken from ChEMBL document CHEMBL3046439, “Spectroscopic characterization of novel d-amino acid-Schiff bases and their Cr(III) and Ni(II) complexes as antimicrobial agents” (2013).

What was measured:
Escherichia coli [1] = experiment: Antimicrobial activity against Escherichia coli ATCC 1280 assessed as diameter of growth inhibition zone at 0.25 ug/ml after 24 hr by well-diffusion method; format: functional; details: ATCC 1280, 24 h, read-out: DIZ
Brucella abortus [2] = experiment: Antimicrobial activity against Brucella abortus (A.99, UK-1995) RSKK03026 assessed as diameter of growth inhibition zone at 0.25 ug/ml after 24 hr by well-diffusion method; format: functional; details: (A.99, UK-1995) RSKK03026, 24 h, read-out: DIZ
Salmonella typhi [3] = experiment: Antimicrobial activity against Salmonella enterica subsp. enterica serovar Typhi H NCTC 901.8394 assessed as diameter of growth inhibition zone at 0.25 ug/ml after 24 hr by well-diffusion method; format: functional; details: H NCTC 901.8394, 24 h, read-out: DIZ
Listeria monocytogenes [4] = experiment: Antimicrobial activity against Listeria monocytogenes ATCC 19115 assessed as diameter of growth inhibition zone at 0.25 ug/ml after 24 hr by well-diffusion method; format: functional; details: ATCC 19115, 24 h, read-out: DIZ
Micrococcus luteus = experiment: Antimicrobial activity against Micrococcus luteus ATCC 9341 assessed as diameter of growth inhibition zone at 0.25 ug/ml after 24 hr by well-diffusion method; format: functional; details: ATCC 9341, 24 h, read-out: DIZ
[5] = tested on: Staphylococcus epidermidis; experiment: Antimicrobial activity against Staphylococcus epidermidis assessed as diameter of growth inhibition zone at 0.25 ug/ml after 24 hr by well diffusion method; format: functional; details: read-out: DIZ
Staphylococcus aureus [6] = experiment: Antimicrobial activity against Staphylococcus aureus ATCC 25923 assessed as diameter of growth inhibition zone at 0.25 ug/ml after 24 hr by well-diffusion method; format: functional; details: ATCC 25923, 24 h, read-out: DIZ
Candida albicans = experiment: Antimicrobial activity against Candida albicans Y-1200-NIH assessed as diameter of growth inhibition zone at 0.25 ug/ml after 24 hr by well-diffusion method; format: functional; details: read-out: DIZ
Shigella dysenteriae = experiment: Antimicrobial activity against Shigella dysenteriae type 10 NCTC 9351 assessed as diameter of growth inhibition zone at 0.25 ug/ml after 24 hr by well diffusion method; format: functional; details: type 10 NCTC 9351, 24 h, read-out: DIZ
Escherichia coli [7] = experiment: Antimicrobial activity against Escherichia coli ATCC 1280 assessed as diameter of growth inhibition zone at 30 ug after 24 hr by well-diffusion method; format: functional; details: ATCC 1280, 24 h, read-out: DIZ
Listeria monocytogenes [8] = experiment: Antimicrobial activity against Listeria monocytogenes ATCC 19115 assessed as diameter of growth inhibition zone at 30 ug after 24 hr by well-diffusion method; format: functional; details: ATCC 19115, 24 h, read-out: DIZ
Salmonella typhi [9] = experiment: Antimicrobial activity against Salmonella enterica subsp. enterica serovar Typhi H NCTC 901.8394 assessed as diameter of growth inhibition zone at 30 ug after 24 hr by well-diffusion method; format: functional; details: H NCTC 901.8394, 24 h, read-out: DIZ
Staphylococcus aureus [10] = experiment: Antimicrobial activity against Staphylococcus aureus ATCC 25923 assessed as diameter of growth inhibition zone at 30 ug after 24 hr by well-diffusion method; format: functional; details: ATCC 25923, 24 h, read-out: DIZ
Salmonella typhi [11] = experiment: Antimicrobial activity against Salmonella enterica subsp. enterica serovar Typhi H NCTC 901.8394 assessed as diameter of growth inhibition zone at 25 ug after 24 hr by well-diffusion method; format: functional; details: H NCTC 901.8394, 24 h, read-out: DIZ
Listeria monocytogenes [12] = experiment: Antimicrobial activity against Listeria monocytogenes ATCC 19115 assessed as diameter of growth inhibition zone at 25 ug after 24 hr by well-diffusion method; format: functional; details: ATCC 19115, 24 h, read-out: DIZ
Escherichia coli [13] = experiment: microbe, parasite or virus in culture; details: ATCC 1280, 24 h, read-out: DIZ
Staphylococcus aureus [14] = experiment: Antimicrobial activity against Staphylococcus aureus ATCC 25923 assessed as diameter of growth inhibition zone at 25 ug after 24 hr by well-diffusion method; format: functional; details: ATCC 25923, 24 h, read-out: DIZ
Staphylococcus aureus [15] = experiment: Antimicrobial activity against Staphylococcus aureus ATCC 25923 assessed as diameter of growth inhibition zone at 10 ug after 24 hr by well-diffusion method; format: functional; details: ATCC 25923, 24 h, read-out: DIZ
Salmonella typhi [16] = experiment: Antimicrobial activity against Salmonella enterica subsp. enterica serovar Typhi H NCTC 901.8394 assessed as diameter of growth inhibition zone at 10 ug after 24 hr by well-diffusion method; format: functional; details: H NCTC 901.8394, 24 h, read-out: DIZ
Escherichia coli [17] = experiment: Antimicrobial activity against Escherichia coli ATCC 1280 assessed as diameter of growth inhibition zone at 10 ug after 24 hr by well-diffusion method; format: functional; details: ATCC 1280, 24 h, read-out: DIZ
Listeria monocytogenes [18] = experiment: Antimicrobial activity against Listeria monocytogenes ATCC 19115 assessed as diameter of growth inhibition zone at 10 ug after 24 hr by well-diffusion method; format: functional; details: ATCC 19115, 24 h, read-out: DIZ
Brucella abortus [19] = experiment: Antimicrobial activity against Brucella abortus (A.99, UK-1995) RSKK03026 assessed as diameter of growth inhibition zone at 30 ug after 24 hr by well-diffusion method; format: functional; details: (A.99, UK-1995) RSKK03026, 24 h, read-out: DIZ

| SMILES | zone of inhibition at 0.25 µg/mL (Escherichia coli [1]) [mm] | zone of inhibition at 0.25 µg/mL (Brucella abortus [2]) [mm] | zone of inhibition at 0.25 µg/mL (Salmonella typhi [3]) [mm] | zone of inhibition at 0.25 µg/mL (Listeria monocytogenes [4]) [mm] | zone of inhibition at 0.25 µg/mL (Micrococcus luteus) [mm] | zone of inhibition at 0.25 µg/mL [5] [mm] | zone of inhibition at 0.25 µg/mL (Staphylococcus aureus [6]) [mm] | zone of inhibition at 0.25 µg/mL (Candida albicans) [mm] | zone of inhibition at 0.25 µg/mL (Shigella dysenteriae) [mm] | further results |
| --- | --- | --- | --- | --- | --- | --- | --- | --- | --- | --- |
| O=C(O)C/N=C/c1cc(F)cc(Cl)c1O | 16 | 15 | 18 | 10 | 26.5 | 12.5 | 18.5 | 15.5 | 18 |  |
| CC1(C)S[C@@H]2[C@H](NC(=O)[C@H](N)c3ccc(O)cc3)C(=O)N2[C@H]1C(=O)O [AMOXICILLIN] |  |  |  |  |  |  |  |  |  | zone of inhibition at 30 µg/disc (Escherichia coli [7]): 14 mm; zone of inhibition at 30 µg/disc (Listeria monocytogenes [8]): 22 mm; zone of inhibition at 30 µg/disc (Salmonella typhi [9]): 19 mm; zone of inhibition at 30 µg/disc (Staphylococcus aureus [10]): 30 mm |
| C[C@@H](/N=C/c1cc(F)cc(Cl)c1O)C(=O)O | 15.5 | 17.5 | 11.5 | 12.5 | 23.5 | 12 | 16 | 15 | 11.5 |  |
| Cc1cc(NS(=O)(=O)c2ccc(N)cc2)no1 [SULFAMETHOXAZOLE] |  |  |  |  |  |  |  |  |  | zone of inhibition at 25 µg/disc (Salmonella typhi [11]): 17 mm; zone of inhibition at 25 µg/disc (Listeria monocytogenes [12]): 11 mm; zone of inhibition at 25 µg/disc (Escherichia coli [13]): 18 mm; zone of inhibition at 25 µg/disc (Staphylococcus aureus [14]): 24 mm |
| CC1(C)S[C@@H]2[C@H](NC(=O)[C@H](N)c3ccccc3)C(=O)N2[C@H]1C(=O)O [AMPICILLIN] |  |  |  |  |  |  |  |  |  | zone of inhibition at 10 µg/disc (Staphylococcus aureus [15]): 30 mm; zone of inhibition at 10 µg/disc (Salmonella typhi [16]): 11 mm; zone of inhibition at 10 µg/disc (Escherichia coli [17]): 10 mm; zone of inhibition at 10 µg/disc (Listeria monocytogenes [18]): 16 mm |
| NC[C@H]1O[C@H](O[C@H]2[C@H](O)[C@@H](O[C@H]3O[C@H](CO)[C@@H](O)[C@H](N)[C@H]3O)[C@H](N)C[C@@H]2N)[C@H](O)[C@@H](O)[C@@H]1O [KANAMYCIN] |  |  |  |  |  |  |  |  |  | zone of inhibition at 30 µg/disc (Escherichia coli [7]): 25 mm; zone of inhibition at 30 µg/disc (Listeria monocytogenes [8]): 15 mm; zone of inhibition at 30 µg/disc (Salmonella typhi [9]): 20 mm; zone of inhibition at 30 µg/disc (Staphylococcus aureus [10]): 25 mm |
| O=C(O)C/N=C/c1cc(F)ccc1O | 13 | 11.5 | 15 | 10 | 15 | 6 | 7 | 10 | 11 |  |
| CC1(C)[C@H](C(=O)O)N2C(=O)C[C@H]2S1(=O)=O [SULBACTAM] |  |  |  |  |  |  |  |  |  | zone of inhibition at 30 µg/disc (Brucella abortus [19]): 12 mm |
| C[C@@H](/N=C/c1cc(F)ccc1O)C(=O)O | 10 | 10.5 |  | 6.5 | 14 | 5 | 6 | 12.5 |  |  |
